Test results taken from article PMC4450769, “Placement of oppositely charged aminoacids at a polypeptide termini determines the voltage-controlled braking of polymer transport through nanometer-scale pores” (Scientific Reports, 2015).

System: Staphylococcus aureus α-hemolysin (α-HL) pore
Type: biochemical

Ac-RRRRRRAAAAAARRRRRR- NH 2 [CP2, control peptide construct with net charge of ~ +6 e− at both N- and C-termini at neutral pH]
capture by the pore as a function of potential polarity (5 µM): captured by the pore only for positive potentials | association with and block of the α-HL pore at negatively applied potential (pH 7.3): does not associate and block
